Experimental findings from PubChem BioAssay AID1745844 (Carcinogenic Potency Database (CPDB), 2022) are described below.

Active and inactive are the calls of the source. How the calls were made is not given here.

The TD50 is the dose at which the toxic effect under study appears in half of the subjects.

For this data set, the system named is rodent lifetime carcinogenesis bioassay, tumor incidence TD50. Put plainly: chronic cancer bioassays in animals – CPDB, compiled studies (AID 1745844).

In the case of `CC(=O)[O-].CC(=O)[O-].[Cd+2]`, the carcinogen call reads like this: (mouse, strain Charles River CD1, females, in drinking water, site: any site (literature study), lesion: one or several types, types not named, dosed 130 weeks, study length 130 weeks) “negative (inactive)”; (mouse, strain Charles River CD1, females, in drinking water, site: lung, lesion: carcinoma, dosed 130 weeks, study length 130 weeks) “negative (inactive)”; (mouse, strain Charles River CD1, males, in drinking water, site: any site (literature study), lesion: one or several types, types not named, dosed 120 weeks, study length 120 weeks) “negative (inactive)”; (mouse, strain Charles River CD1, males, in drinking water, site: lung, lesion: carcinoma, dosed 120 weeks, study length 120 weeks) “negative (inactive)”. For the same molecule, the TD50 is 5.1 mg/kg/day (inactive) (rat, strain Long-Evans BLU:(LE), both sexes, in drinking water, site: any site (literature study), lesion: malignant tumor, dosed 175 weeks, study length 175 weeks); 1.81 mg/kg/day (inactive) (rat, strain Long-Evans BLU:(LE), both sexes, in drinking water, site: any site (literature study), lesion: one or several types, types not named, dosed 175 weeks, study length 175 weeks); 37.7 mg/kg/day (inactive) (rat, strain Long-Evans BLU:(LE), both sexes, in drinking water, site: liver, lesion: one or several types, types not named, dosed 175 weeks, study length 175 weeks).

For `O=NN(CC(F)(F)F)CC(F)(F)F`, the TD50 (rat, strain Fischer 344, females, in drinking water, site: liver, lesion: malignant tumor, dosed 30 weeks, study length 130 weeks) is 4.98 mg/kg/day (inactive). Further, the carcinogen call (rat, strain Sprague-Dawley, males, in drinking water, site: several sites, sites named in the paper, lesion: malignant tumor, dosed 30 weeks, study length 114 weeks) was “negative (inactive)”.

For the molecule `CCN(C)N=O`, the TD50 is, setting by setting: (rat, strain Fischer 344, females, in drinking water, site: all sites, lesion: one or several types, types not named, dosed 30 weeks, study length 115 weeks) 0.0386 mg/kg/day; (rat, strain Fischer 344, males, by gavage, site: liver, lesion: hemangiosarcoma, dosed 30 weeks, study length 55 weeks) 0.12 mg/kg/day; (rat, strain Fischer 344, males, by gavage, site: liver, lesion: hepatocellular tumor, benign, dosed 30 weeks, study length 55 weeks) 0.0503 mg/kg/day; (rat, strain Fischer 344, males, by gavage, site: liver, lesion: several types, types named in the paper, dosed 30 weeks, study length 55 weeks) 0.0503 mg/kg/day; (rat, strain Fischer 344, males, by gavage, site: lung, lesion: alveolar/bronchiolar adenoma, dosed 30 weeks, study length 55 weeks) 0.242 mg/kg/day; (rat, strain Fischer 344, males, by gavage, site: nasal mucosa, lesion: one or several types, types not named, dosed 30 weeks, study length 55 weeks) 0.201 mg/kg/day.

For the molecule `Nc1nc(N)nc(N)n1`, the carcinogen call (mouse, strain B6C3F1, females, in feed, site: any site (literature study), lesion: several types, types named in the paper, dosed 103 weeks, study length 105 weeks) is “negative (inactive)”. Also, the TD50 by setting is: (mouse, strain B6C3F1, males, in feed, site: any site (literature study), lesion: several types, types named in the paper, dosed 103 weeks, study length 105 weeks) 3200 mg/kg/day (inactive); (mouse, strain B6C3F1, males, in feed, site: liver, lesion: hepatocellular adenoma + hepatocellular carcinoma + neoplastic nodule, dosed 103 weeks, study length 105 weeks) 4370 mg/kg/day; (rat, strain Fischer 344, females, in feed, site: any site (literature study), lesion: several types, types named in the paper, dosed 103 weeks, study length 105 weeks) 3930 mg/kg/day; (rat, strain Fischer 344, females, in feed, site: liver, lesion: hepatocellular adenoma + hepatocellular carcinoma + neoplastic nodule, dosed 103 weeks, study length 105 weeks) 4410 mg/kg/day; (rat, strain Fischer 344, females, in feed, site: thyroid gland, lesion: c-cell adenoma + c-cell carcinoma, dosed 103 weeks, study length 105 weeks) 2470 mg/kg/day (inactive); (rat, strain Fischer 344, females, in feed, site: thyroid gland, lesion: c-cell carcinoma, dosed 103 weeks, study length 105 weeks) 4160 mg/kg/day. Moreover, the TD50 is 149 mg/kg/day (rat, strain Fischer 344, males, in feed, site: any site (literature study), lesion: several types, types named in the paper, dosed 103 weeks, study length 105 weeks); 679 mg/kg/day (rat, strain Fischer 344, males, in feed, site: urinary bladder, lesion: transitional-cell carcinoma + transitional-cell papilloma, dosed 103 weeks, study length 105 weeks); 735 mg/kg/day (rat, strain Fischer 344, males, in feed, site: urinary bladder, lesion: transitional-cell carcinoma, dosed 103 weeks, study length 105 weeks).

As for `COc1cc(N)ccc1N=Nc1ccccc1`, the carcinogen call (mouse, strain B6C3F1, females, in feed, site: liver, lesion: one or several types, types not named, dosed 56 weeks, study length 56 weeks) was “negative (inactive)” and the carcinogen call (mouse, strain B6C3F1, males, in feed, site: liver, lesion: one or several types, types not named, dosed 56 weeks, study length 56 weeks) is “negative (inactive)”.

Regarding `O=S1(=O)CC=CC1`, under “mouse, strain B6C3F1, females, by gavage, site: any site (literature study), lesion: several types, types named in the paper, dosed 78 weeks, study length 90 weeks”, the carcinogen call is “negative (inactive)”. Further, the TD50 runs as follows: (mouse, strain B6C3F1, females, by gavage, site: lung, lesion: alveolar/bronchiolar adenoma + alveolar/bronchiolar carcinoma, dosed 78 weeks, study length 90 weeks) 1940 mg/kg/day; (mouse, strain B6C3F1, males, by gavage, site: any site (literature study), lesion: several types, types named in the paper, dosed 78 weeks, study length 90 weeks) 631 mg/kg/day (inactive); (mouse, strain B6C3F1, males, by gavage, site: liver, lesion: hepatocellular adenoma + hepatocellular carcinoma + neoplastic nodule, dosed 78 weeks, study length 90 weeks) 415 mg/kg/day; (mouse, strain B6C3F1, males, by gavage, site: lung, lesion: alveolar/bronchiolar adenoma + alveolar/bronchiolar carcinoma, dosed 78 weeks, study length 90 weeks) 882 mg/kg/day; (rat, strain Osborne-Mendel, females, by gavage, site: any site (literature study), lesion: several types, types named in the paper, dosed 78 weeks, study length 111 weeks) 5370 mg/kg/day (inactive); (rat, strain Osborne-Mendel, males, by gavage, site: any site (literature study), lesion: several types, types named in the paper, dosed 69 weeks, study length 111 weeks) 30.8 mg/kg/day (inactive).

As to `NNCCc1ccccc1`, the TD50 runs as follows: (mouse, strain Swiss albino, females, in drinking water, site: blood vessels, lesion: angiosarcoma, dosed 93 weeks, study length 93 weeks) 20.4 mg/kg/day; (mouse, strain Swiss albino, females, in drinking water, site: blood vessels, lesion: several types, types named in the paper, dosed 93 weeks, study length 93 weeks) 14.6 mg/kg/day; (mouse, strain Swiss albino, females, in drinking water, site: fat, lesion: angiosarcoma, dosed 93 weeks, study length 93 weeks) 23.7 mg/kg/day; (mouse, strain Swiss albino, females, in drinking water, site: liver, lesion: several types, types named in the paper, dosed 93 weeks, study length 93 weeks) 278 mg/kg/day; (mouse, strain Swiss albino, females, in drinking water, site: lung, lesion: adenoma, dosed 93 weeks, study length 93 weeks) 25.8 mg/kg/day; (mouse, strain Swiss albino, females, in drinking water, site: lung, lesion: angiosarcoma, dosed 93 weeks, study length 93 weeks) 123 mg/kg/day. Besides, the TD50 by setting is: (mouse, strain Swiss albino, females, in drinking water, site: lung, lesion: several types, types named in the paper, dosed 93 weeks, study length 93 weeks) 27.5 mg/kg/day; (mouse, strain Swiss albino, females, in drinking water, site: muscle, lesion: angiosarcoma, dosed 93 weeks, study length 93 weeks) 21.7 mg/kg/day; (mouse, strain Swiss albino, females, in drinking water, site: subcutaneous tissue, lesion: angiosarcoma, dosed 93 weeks, study length 93 weeks) 19.9 mg/kg/day; (mouse, strain Swiss albino, males, in drinking water, site: lung, lesion: adenoma, dosed 99 weeks, study length 99 weeks) 30 mg/kg/day (inactive); (mouse, strain Swiss albino, males, in drinking water, site: lung, lesion: several types, types named in the paper, dosed 99 weeks, study length 99 weeks) 33.1 mg/kg/day (inactive). Further, the carcinogen call (mouse, strain Swiss albino, males, in drinking water, site: liver, lesion: several types, types named in the paper, dosed 99 weeks, study length 99 weeks) is “negative (inactive)”.

In the case of `C#CC(OC(N)=O)(c1ccccc1)c1ccc(Cl)cc1` (stereo unspecified), the TD50 runs as follows: (rat, strain Harlan, males, in feed, site: any site (literature study), lesion: several types, types named in the paper, dosed 72 weeks, study length 94 weeks) 3.88 mg/kg/day; (rat, strain Harlan, males, in feed, site: brain, lesion: several types, types named in the paper, dosed 72 weeks, study length 94 weeks) 462 mg/kg/day; (rat, strain Harlan, males, in feed, site: duodenum, lesion: adenocarcinoma, dosed 72 weeks, study length 94 weeks) 24.9 mg/kg/day; (rat, strain Harlan, males, in feed, site: jejunum, lesion: adenocarcinoma, dosed 72 weeks, study length 94 weeks) 8.78 mg/kg/day; (rat, strain Harlan, males, in feed, site: liver, lesion: several types, types named in the paper, dosed 72 weeks, study length 94 weeks) 58.5 mg/kg/day.

Regarding `C/C=C1/C[C@@H](C)[C@](O)(CO)C(=O)OCC2=CC[N+]3([O-])CC[C@@H](OC1=O)[C@@H]23` (stereo partly specified), the TD50 by setting is: (rat, strain Wistar, females, in drinking water, site: liver, lesion: hepatoma, dosed 103 weeks, study length 104 weeks) 1.27 mg/kg/day; (rat, strain Wistar, males, in drinking water, site: liver, lesion: hepatoma, dosed 103 weeks, study length 104 weeks) 0.499 mg/kg/day.

For `O=[N+]([O-])c1cccc2ccccc12`, the carcinogen call is, setting by setting: (mouse, strain B6C3F1, females, in feed, site: any site (literature study), lesion: several types, types named in the paper, dosed 78 weeks, study length 96 weeks) “negative (inactive)”; (mouse, strain B6C3F1, males, in feed, site: any site (literature study), lesion: several types, types named in the paper, dosed 78 weeks, study length 96 weeks) “negative (inactive)”; (rat, strain Fischer 344, females, in feed, site: any site (literature study), lesion: several types, types named in the paper, dosed 78 weeks, study length 107 weeks) “negative (inactive)”; (rat, strain Fischer 344, males, in feed, site: any site (literature study), lesion: several types, types named in the paper, dosed 78 weeks, study length 107 weeks) “negative (inactive)”. Further, the TD50 amounted to 682 mg/kg/day (mouse, strain B6C3F1, females, in feed, site: lung, lesion: alveolar/bronchiolar adenoma + alveolar/bronchiolar carcinoma, dosed 78 weeks, study length 96 weeks) and 509 mg/kg/day (rat, strain Fischer 344, males, in feed, site: liver, lesion: hepatocellular adenoma + hepatocellular carcinoma + neoplastic nodule, dosed 78 weeks, study length 107 weeks).

Regarding `CC(Oc1c(Cl)cccc1Cl)C1=NCCN1` (stereo unspecified), the TD50 was 2.3 mg/kg/day (inactive) (rat, strain Long-Evans, females, in feed, site: any site (literature study), lesion: one or several types, types not named, dosed 52 weeks, study length 52 weeks) and 2.3 mg/kg/day (inactive) (rat, strain Long-Evans, males, in feed, site: any site (literature study), lesion: one or several types, types not named, dosed 52 weeks, study length 52 weeks).
